Assay results published in the NIST ThermoML archive (doi:10.1016/j.tca.2012.10.024).
Numbers after ± are expanded uncertainties.

Assays:
[1] = refractive index (Na D-line) (dimensionless); xn = mol fraction of the nth substance listed; settings: 101 kPa, Liquid, Standard Abbe refractometry
[2] = relative permittivity at zero frequency (dimensionless); xn = mol fraction of the nth substance listed; settings: 101 kPa, Liquid, Parallel plate capacitor

COCCOCCOCCOCCOC [2,5,8,11,14-pentaoxapentadecane] + CCCCCCCC
Settings	refractive index, 293.15 K	refractive index, 298.15 K	refractive index, 303.15 K	relative permittivity at zero frequency, 293.15 K	relative permittivity at zero frequency, 298.15 K	relative permittivity at zero frequency, 303.15 K
[1], x1 = 0.0503	1.3993 ± 0.0007	1.3969 ± 0.0007	1.3946 ± 0.0007	–	–	–
[1], x1 = 0.1003	1.4011 ± 0.0007	1.3987 ± 0.0007	1.3965 ± 0.0007	–	–	–
[1], x1 = 0.1515	1.4031 ± 0.0007	1.4007 ± 0.0007	1.3985 ± 0.0007	–	–	–
[1], x1 = 0.2061	1.4052 ± 0.0007	1.4028 ± 0.0007	1.4006 ± 0.0007	–	–	–
[1], x1 = 0.245	1.4067 ± 0.0007	1.4043 ± 0.0007	1.4021 ± 0.0007	–	–	–
[1], x1 = 0.305	1.4091 ± 0.0007	1.4067 ± 0.0007	1.4045 ± 0.0007	–	–	–
[1], x1 = 0.3569	1.4111 ± 0.0007	1.4087 ± 0.0007	1.4065 ± 0.0007	–	–	–
[1], x1 = 0.4054	1.4127 ± 0.0007	1.4106 ± 0.0007	1.4084 ± 0.0007	–	–	–
[1], x1 = 0.4487	1.4144 ± 0.0007	1.4122 ± 0.0007	1.41 ± 0.0007	–	–	–
[1], x1 = 0.5043	1.4163 ± 0.0007	1.4142 ± 0.0007	1.4121 ± 0.0007	–	–	–
[1], x1 = 0.5537	1.4182 ± 0.0007	1.4159 ± 0.0007	1.4138 ± 0.0007	–	–	–
[1], x1 = 0.5963	1.4195 ± 0.0007	1.4173 ± 0.0007	1.4151 ± 0.0007	–	–	–
[1], x1 = 0.6473	1.4213 ± 0.0007	1.4191 ± 0.0007	1.417 ± 0.0007	–	–	–
[1], x1 = 0.693	1.4228 ± 0.0007	1.4208 ± 0.0007	1.4186 ± 0.0007	–	–	–
[1], x1 = 0.7515	1.4248 ± 0.0008	1.4227 ± 0.0008	1.4207 ± 0.0008	–	–	–
[1], x1 = 0.8067	1.4268 ± 0.0008	1.4248 ± 0.0008	1.423 ± 0.0008	–	–	–
[1], x1 = 0.8475	1.4281 ± 0.0008	1.426 ± 0.0008	1.4239 ± 0.0008	–	–	–
[1], x1 = 0.8941	1.4295 ± 0.0008	1.4275 ± 0.0008	1.4256 ± 0.0008	–	–	–
[1], x1 = 0.947	1.431 ± 0.0008	1.429 ± 0.0008	1.4271 ± 0.0008	–	–	–
[2], x1 = 0.033	–	–	–	2.107 ± 0.13	2.098 ± 0.13	2.088 ± 0.12
[2], x1 = 0.0659	–	–	–	2.254 ± 0.14	2.242 ± 0.14	2.23 ± 0.13
[2], x1 = 0.0998	–	–	–	2.413 ± 0.14	2.398 ± 0.14	2.382 ± 0.14
[2], x1 = 0.133	–	–	–	2.577 ± 0.15	2.558 ± 0.15	2.538 ± 0.15
[2], x1 = 0.1645	–	–	–	2.736 ± 0.16	2.715 ± 0.16	2.693 ± 0.16
[2], x1 = 0.2003	–	–	–	2.922 ± 0.17	2.896 ± 0.17	2.87 ± 0.17
[2], x1 = 0.2488	–	–	–	3.19 ± 0.19	3.158 ± 0.19	3.126 ± 0.19
[2], x1 = 0.3002	–	–	–	3.476 ± 0.21	3.438 ± 0.21	3.4 ± 0.2
[2], x1 = 0.3486	–	–	–	3.762 ± 0.23	3.718 ± 0.22	3.675 ± 0.22
[2], x1 = 0.3951	–	–	–	4.03 ± 0.24	3.981 ± 0.24	3.931 ± 0.24
[2], x1 = 0.4461	–	–	–	4.347 ± 0.26	4.291 ± 0.26	4.234 ± 0.25
[2], x1 = 0.5092	–	–	–	4.738 ± 0.28	4.674 ± 0.28	4.61 ± 0.28
[2], x1 = 0.5516	–	–	–	5.005 ± 0.3	4.937 ± 0.3	4.867 ± 0.29
[2], x1 = 0.6003	–	–	–	5.313 ± 0.32	5.238 ± 0.31	5.163 ± 0.31
[2], x1 = 0.6409	–	–	–	5.578 ± 0.34	5.499 ± 0.33	5.42 ± 0.33
[2], x1 = 0.693	–	–	–	5.909 ± 0.35	5.823 ± 0.35	5.736 ± 0.34
[2], x1 = 0.7072	–	–	–	6.004 ± 0.36	5.916 ± 0.35	5.827 ± 0.35
[2], x1 = 0.7515	–	–	–	6.298 ± 0.38	6.205 ± 0.37	6.111 ± 0.37
[2], x1 = 0.8002	–	–	–	6.622 ± 0.4	6.523 ± 0.39	6.421 ± 0.39
[2], x1 = 0.8461	–	–	–	6.943 ± 0.42	6.838 ± 0.41	6.732 ± 0.4
[2], x1 = 0.8985	–	–	–	7.279 ± 0.44	7.168 ± 0.43	7.057 ± 0.42
[2], x1 = 0.9441	–	–	–	7.585 ± 0.46	7.469 ± 0.45	7.351 ± 0.44
